The record followed here is patent US4782092A, “5,8-dichloro-4-hydroxy-1-[(aminoalkyl) amino]-9,10-anthracenediones, pharmaceutical compositions and use” (Mid-America Cancer Center, priority 1986, dated 1988).

Values joined by “and” are separate entries in the source; they are usually repeats but may differ in a detail not shown here. Identical values can stand only once. Like-named read-outs stand apart in the source and are kept apart here.

Test [1] concerns Alcaligenes viscolactis (ATCC-21698). The test can be described thus: in vitro antibacterial/antifungal (ABF) agar-disk diffusion assay, Alcaligenes viscolactis. To be noted: read-out: Inhibition Zone Diameter. The class given is cell-based. The procedure:
(§1) One test protocol is the in vitro antibacterial/antifungal (ABF) test. Compounds are tested for antimicrobial activity in an agar-disk diffusion assay, a standard microbiological technique for testing antibiotics. After incubation of each culture with a test compound, a zone of inhibition is determined. The zone diameter (mm) of active compounds ranges from a minimum of 14 mm to as high as 18 mm, with a greater diameter reflecting higher activity. For convenience, values are reported for three gram-negative bacterial species, Alcaligenes viscolactis ATCC 21698, Escherichia coli Tol and PD04863, Branhamella catarrhalis PD03596; and one gram-positive bacterium, Bacillus subtilis PD04555.

The next test concerns Escherichia coli Tol. Briefly: in vitro antibacterial/antifungal (ABF) agar-disk diffusion assay, Escherichia coli Tol. The following applies: read-out: Inhibition Zone Diameter. The format is cell-based. The procedure:
as §1

The subject of another test is Escherichia coli PD08463. The test can be described thus: in vitro antibacterial/antifungal (ABF) agar-disk diffusion assay, Escherichia coli PD08463. The format is cell-based. The following applies: 5.0 mg/ml, read-out: Inhibition Zone Diameter. The method, then: as §1
For test [2], the system named is Branhamella catarrhalis PD03596. Briefly: in vitro antibacterial/antifungal (ABF) agar-disk diffusion assay, Branhamella catarrhalis. The class given is cell-based. The following applies: Moraxella catarrhalis, 5.0 mg/ml, read-out: Inhibition Zone Diameter. The method, then:
as §1

The test system of test [3] is Bacillus subtilis PD04555. The test can be described thus: in vitro antibacterial/antifungal (ABF) agar-disk diffusion assay, Bacillus subtilis. The format is cell-based. The following applies: read-out: Inhibition Zone Diameter. The method, then:
as §1
Background: A growth-free zone around the sample is the usual read-out of agar diffusion tests.

The next test concerns L1210 Leukemia. Briefly: growth-inhibitory effects against mouse tumor line L1210 in suspension cell culture. The class given is cell-based. To be noted: L1210, 72 h. The procedure:
In another test protocol, growth-inhibitory effects are measured against the mouse tumor line L1210 in suspension cell culture. Cell cultures were initiated at a density of 50,000 cells/ml in medium RPMI […] supplemented with 10 percent fetal calf serum. Composition of this culture medium and details of the culture procedure follow the published method (Journal of the National Cancer Institute 36, 405-415, 1966). Cultures are maintained at 37 degrees in stationary suspension culture under a 95 percent air +5 percent CO2 atmosphere. Test compounds are added to treated cultures at the time of initiation, and are present continually. After 72 hours, 40-fold dilutions of drug-treated and untreated control cultures are prepared in 0.9 percent NaCl solution, and cells are counted on an electronic particle counter. The growth-inhibitory effects are expressed as ID50 values, namely test compound inhibitory dosages or concentrations required to decrease cell count in treated cultures to 50 percent of the cell count of untreated control cultures.

Another test has as its system P388 Leukemia. Briefly: in vivo lymphocytic leukemia P388 test. Set-up: species or system mice (CD2 F1). To be noted: IP/IP, QOID × 5. The procedure:
Another test protocol is the in vivo lymphocytic leukemia P388 test. The animals used are either male or female CD2 F1 mice, six or seven animals per test group. The tumor transplant is by intraperitoneal injection of dilute ascitic fluid containing cells of lymphocytic leukemia P388. The test compounds are administered intraperitoneally once daily for five consecutive days at various doses following tumor inoculation. The animals are weighed and survivors are recorded on a regular basis for 30 days. A compound is designated "toxic" if, at a given dose, all animals died prior to four days after the first injection of drug. A ratio of survival time for treated (T)/control (C) animals is calculated. A criterion for efficacy is a ratio T/C times 100 greater than or equal to 125. See Cancer Chemotherapy Reports, Part 3, 3, 1 (1972) for a comprehensive discussion of the protocol.

In the next test the test system is B16 Melanoma. Briefly: solid tumor B16 melanoma in mice. The following applies: IP/IP, QOID × 9. The class given is in vivo, mice (B6C3F1). The procedure:
Another test protocol utilizes the solid tumor B16 melanoma in mice. The tumor is inoculated by intraperitoneal injection. The test compounds are administered intraperitoneally once daily for nine consecutive days at various doses following tumor inoculation. A ratio of survival time for treated (T)/control (C) animals is calculated. A criterion for efficacy is a ratio T/C times 100 greater than or equal to […]. See Cancer Therapy Reviews, 7,167(1980) and references cited therein for further details and interpretation of the test.
*Procedure described in Cancer Chemotherapy Reviews, 7, 167 (1980) and
references cited therein.

The mark [4] stands for this setting: Test 1, read-out: Molar Concentration Required for 50% Inhibition of Growth (ID50).
Where [5] appears, read: Test 2, read-out: Molar Concentration Required for 50% Inhibition of Growth (ID50).
The mark [6] stands for this setting: 25 mg/kg, listed as 5,8-Dichloro-4-hydroxy-1-[ [2-[(2-hydroxyethyl)aminoethyl]amino]-7,10-anthracene.
Setting [7] is: 50 mg/kg, listed as 5,8-Dichloro-4-hydroxy-1-[ [2-[(2-hydroxyethyl)aminoethyl]amino]-7,10-anthracene.
Setting [8] is: 100 mg/kg, listed as 5,8-Dichloro-4-hydroxy-1-[ [2-[(2-hydroxyethyl)aminoethyl]amino]-7,10-anthracene.

`O=C1c2c(O)ccc(NCCNCCO)c2C(=O)c2c(Cl)ccc(Cl)c21` [5,8-dichloro-4-hydroxy-1-[[2-[(2-hydroxyethyl)aminoethyl]amino]]-9,10-anthracenedione]: the zone of inhibition at 1000 µg/mL in test [1] (ATCC21698, 1.0 mg/ml) came out at 14 mm; in the test on Escherichia coli Tol (1.0 mg/ml) it was 15 mm; in test [3] (1.0 mg/ml), 14 mm. For the same compound, the zone of inhibition at 5000 µg/mL in test [1] (ATCC21698, 5.0 mg/ml) was determined as 15 mm; in the test on Escherichia coli Tol (5.0 mg/ml), 18 mm; in the test with Escherichia coli PD08463 it was 14 mm; in test [2], 14 mm; in test [3] (5.0 mg/ml), 16 mm. The IC50 in the test on L1210 Leukemia (setting [4]) is 0.0866 µM; with L1210 Leukemia (setting [5]), 0.111 µM. Besides, the “T/C × 100” value in the test with P388 Leukemia (6.25 mg/kg) was 154%; in the test with P388 Leukemia (12.5 mg/kg), 146%; in the test with P388 Leukemia (setting [6]), 242% and 163%; in the test on P388 Leukemia (setting [7]), 175% and 188% and 177%; with P388 Leukemia (setting [8]), 235% and 202%; in the test on B16 Melanoma (6.25 mg/kg), 166%. Besides, the “T/C × 100” value with B16 Melanoma (12.5 mg/kg) was 172%; with B16 Melanoma (20 mg/kg), 224%; in the test on B16 Melanoma (setting [6]), 199% and 130%; with B16 Melanoma (40 mg/kg), 231%; in the test with B16 Melanoma (setting [7]), 252% and 143%; in the test with B16 Melanoma (80 mg/kg) it was 271%. The “T/C × 100” value is 270% and 191% with B16 Melanoma (setting [8]); 326% in the test on B16 Melanoma (160 mg/kg); 180% and 172% in the test on B16 Melanoma (200 mg/kg, listed as 5,8-Dichloro-4-hydroxy-1-[ [2-[(2-hydroxyethyl)aminoethyl]amino]-7,10-anthracene); 190% in the test on B16 Melanoma (400 mg/kg). Also, the cures result with P388 Leukemia (25 mg/kg), with B16 Melanoma (12.5 mg/kg), in the test with B16 Melanoma (25 mg/kg), in the test on B16 Melanoma (40 mg/kg), in the test on B16 Melanoma (50 mg/kg) and with B16 Melanoma (80 mg/kg) was “cures” each time. The cures entry in the test with B16 Melanoma (100 mg/kg) is reported as “cures”.

Take `CN(C)CCNc1ccc(O)c2c1C(=O)c1c(Cl)ccc(Cl)c1C2=O` [5,8-dichloro-4-hydroxy-1-[2-(dimethylamino)ethyl]amino-9,10-anthracenedione]: the IC50 in the test with L1210 Leukemia (setting [4]) was determined as 0.0919 µM; in the test on L1210 Leukemia (setting [5]) it was 0.0809 µM.
